Experimental data published in patent US20240182436A1, “SUBSTITUTED SULFONAMIDE-CHROMAN COMPOUNDS, AND PHARMACEUTICAL COMPOSITIONS, AND METHODS OF USE THEREOF” (priority 2021, published 2024).

Test system: Harmaline-induced tremor
Assay: Harmaline-induced Tremor Model
Type: in vivo
Details: Mus musculus, ip, adult male CD1 mice; test article 30 mg/kg i.p.; harmaline 30 mg/kg i.p.; read-out: Tremor Suppression Activity (magnitude of tremor suppression in percent compared to vehicle)
Description: Harmaline-induced Tremor: Harmaline-induced tremor is widely recognized as an animal model of Essential Tremor (ET). Following acute administration, harmaline produces an 8-16 Hz tremor in rodents, cats, and monkeys that, like ET, is postural and kinetic, involving appendicular and axial musculature (Handforth, A. (2012). Harmaline tremor: underlying mechanisms in a potential animal model of essential tremor. Tremor and Other Hyperkinetic Movements (NY), 2, 02-92-769-1; Handforth, A. (2016). Linking Essential Tremor to the Cerebellum-Animal Model Evidence. Cerebellum, 15(3), 285-298; LeDoux, M. (2005). Harmaline tremor. In Movement Disorders. Elsevier Inc.; Louis, E. D. (2014). Re-thinking the biology of essential tremor: From models to morphology. Parkinsonism and Related Disorders, 20 (SUPPL.1), S88-S93). […] Clinical agents that suppress ET in patients are generally effective in the harmaline-induced tremor model (Handforth 2016). Following acute dosing of harmaline in mice, the tremor frequency (10-20 Hz) is typically recorded using an automated force plate-based system.
Procedure: Tremor activity was measured using a custom-made testing apparatus containing a piezoelectric sensing platform which was connected to an amplifier (A-M Systems model 1700). Adult male CD1 mice were brought to the experiment room for acclimatization 1 h prior to testing. Mice were first placed inside the testing apparatus for 10 min baseline habituation. After the initial habituation, mice were treated with vehicle (10 ml/kg) or test article (30 mg/kg, i.p.) and placed back in the apparatus for an additional 20 min baseline recording. Subsequently, animals were injected with harmaline (30 mg/kg, i.p.) and tremor activity was measured for 20 min. The electric signal of tremor activity was amplified at a sampling rate of 512 Hz with a multichannel amplifier and then acquired, quantized, and digitized by a data acquisition unit (CED Micro 1401). The software Spike2 (v 7.07, Cambridge Electronic Design, Cambridge, UK) was used to analyze the tremor signal by performing Fourier transformation of the data into frequency spectra. Changes in absolute power were expressed relative to each animal's 20-min baseline for the frequencies of 10-20 Hz. Comparisons between treatment and respective vehicle groups were assessed with two-tailed, Student's t-test. The level of statistical significance was defined as p<0.05 (see, e.g., Table 2.1) The magnitude of tremor suppression in percent compared to vehicle is shown in Table 2.2.
A tremor suppression score was defined as the magnitude of tremor suppression in percent compared to vehicle: ≤24% (D), 25-55% (C), 56-70% (B) and 71-100% (A). Not tested (---).

Row | Structure (SMILES) | inhibition in vivo at 30 mg/kg [%]
1 | C[C@@H]1COc2cc(F)c(F)cc2[C@H]1CS(N)(=O)=O (stereo in doubt) [Compound 9, ((3S*,4S*)-6,7-difluoro-3-methylchroman-4-yl)methanesulfonamide] | 25 to 55
2 | C[C@H]1COc2cc(F)c(F)cc2[C@@H]1CS(N)(=O)=O (stereo in doubt) [Compound 10, ((3R*,4R*)-6,7-difluoro-3-methylchroman-4-yl)methanesulfonamide] | ≤ 24
3 | CC[C@@H]1C[C@H](CS(N)(=O)=O)c2ccc(F)cc2O1 (stereo in doubt) [Compound 11, ((2R*,4S*)-2-ethyl-7-fluorochroman-4-yl)methanesulfonamide] | 71 to 100
4 | CC[C@H]1C[C@@H](CS(N)(=O)=O)c2ccc(F)cc2O1 (stereo in doubt) [Compound 12, ((2S*,4R*)-2-ethyl-7-fluorochroman-4-yl)methanesulfonamide] | 56 to 70
5 | CC[C@H]1COc2cc(F)ccc2[C@H]1CS(N)(=O)=O (stereo in doubt) [Compound 19, ((3R*,4S*)-3-ethyl-7-fluorochroman-4-yl)methanesulfonamide] | ≤ 24
6 | CC[C@@H]1COc2cc(F)ccc2[C@@H]1CS(N)(=O)=O (stereo in doubt) [Compound 20, ((3S*,4R*)-3-ethyl-7-fluorochroman-4-yl)methanesulfonamide] | 71 to 100
7 | CC[C@@H]([C@H]1CCOc2cc(F)ccc21)S(N)(=O)=O (stereo in doubt) [Compound 25, (S*)-1-((S*)-7-fluorochroman-4-yl)propane-1-sulfonamide] | 56 to 70
8 | CC[C@H]([C@@H]1CCOc2cc(F)ccc21)S(N)(=O)=O (stereo in doubt) [Compound 26, (R*)-1-((R*)-7-fluorochroman-4-yl)propane-1-sulfonamide] | 71 to 100
9 | C[C@@H]1C[C@H](CS(N)(=O)=O)c2ccccc2O1 (stereo in doubt) [Compound 33, ((2R*,4S*)-2-methylchroman-4-yl)methanesulfonamide] | 25 to 55
10 | C[C@H]1C[C@@H](CS(N)(=O)=O)c2ccccc2O1 (stereo in doubt) [Compound 34, ((2S*,4R*)-2-methylchroman-4-yl)methanesulfonamide] | 56 to 70
11 | C[C@H]1COc2ccccc2[C@H]1CS(N)(=O)=O (stereo in doubt) [Compound 39, ((3R*,4S*)-3-methylchroman-4-yl)methanesulfonamide] | 25 to 55
12 | C[C@@H]1COc2ccccc2[C@@H]1CS(N)(=O)=O (stereo in doubt) [Compound 40, ((3S*,4R*)-3-methylchroman-4-yl)methanesulfonamide] | 25 to 55
13 | C[C@@H]1COc2ccccc2[C@H]1CS(N)(=O)=O (stereo in doubt) [Compound 41, ((3S*,4S*)-3-methylchroman-4-yl)methanesulfonamide] | 56 to 70
14 | C[C@H]1COc2ccccc2[C@@H]1CS(N)(=O)=O (stereo in doubt) [Compound 42, ((3R*,4R*)-3-methylchroman-4-yl)methanesulfonamide] | ≤ 24
15 | CN([C@H]1CCOc2cc(F)ccc21)S(N)(=O)=O (stereo in doubt) [Compound 69, 4(S*))-7-fluoro-4-[methyl(sulfamoyl)amino]-3,4-dihydro-2(H)-chromene] | ≤ 24
16 | CN([C@@H]1CCOc2cc(F)ccc21)S(N)(=O)=O (stereo in doubt) [Compound 70, 4(R*))-7-fluoro-4[methyl(sulfamoyl)amino]-3,4-dihydro-2(H)-chromene] | ≤ 24
17 | NS(=O)(=O)N[C@H]1CCOc2cc(F)ccc21 (stereo in doubt) [Compound 71, 4(S*))-7-fluoro-4-(sulfamoylamino)-3,4-dihydro-2(H)-chromene] | 56 to 70
18 | NS(=O)(=O)N[C@@H]1CCOc2cc(F)ccc21 (stereo in doubt) [Compound 72, 4(R*))-7-fluoro-4-(sulfamoylamino)-3,4-dihydro-2(H)-chromene] | 25 to 55
19 | C[C@@H]1COc2cc(F)ccc2[C@@H]1NS(N)(=O)=O (stereo in doubt) [Compound 73, (3(S*),4(R*))-7-fluoro-3-methyl-4-(sulfamoylamino)-3,4-dihydro-2(H)-chromene] | 56 to 70
20 | C[C@H]1COc2cc(F)ccc2[C@H]1NS(N)(=O)=O (stereo in doubt) [Compound 74, (3(R*),4(S*))-7-fluoro-3-methyl-4-(sulfamoylamino)-3,4-dihydro-2(H)-chromene] | 56 to 70

Same assay, conditions: adult male CD1 mice; test article 30 mg/kg i.p.; harmaline 30 mg/kg i.p.; 10-20 Hz power over 20 min relative to 20-min baseline

Row | Structure (SMILES) | Tremor power relative to baseline (mean ± s.e.m.)
21 | CC[C@@H]1C[C@H](CS(N)(=O)=O)c2ccc(F)cc2O1 (stereo in doubt) [Compound 11, ((2R*,4S*)-2-ethyl-7-fluorochroman-4-yl)methanesulfonamide] | 134 ± 32
22 | CC[C@H]1C[C@@H](CS(N)(=O)=O)c2ccc(F)cc2O1 (stereo in doubt) [Compound 12, ((2S*,4R*)-2-ethyl-7-fluorochroman-4-yl)methanesulfonamide] | 196 ± 59
